Reference: patent US20120237503A1, “Screening Method and Therapy with Agonists of DDAH I” (UCL BUSINESS PLC, priority 2009, published 2012)
Entries after “also recorded” stand apart in the source; their conditions may differ.

How the values were obtained:
BDL rats = experiment: Direct portal pressure measurement in bile duct ligated (BDL) rats; assay type: in vivo, rat
Source text: (§1) These experiments utilised an established animal model of cirrhosis, the bile duct ligated (BDL) rat. BDL rats may be generated by methods known in the art. For example, male Sprague-Dawley rats (200-250 g) may be used for this procedure. Following anaesthetisation, a mid-line laparotamy may be performed, the bile duct exposed, triply ligated with 4.0 silk suture, and severed between the second and third ligature. The wound is then closed in layers with absorbable suture, and the animal allowed to recover in a quiet room before being returned to the animal storage facility.
Three groups of rats were used in these experiments, BDL rats treated with vehicle, BDL rats treated with the anti-TNF monoclonal antibody infliximab, and sham treated rats.
Four weeks after BDL or sham surgery in Sprague-Dawley rats (n=14), BDL rats were gavaged with 5 mg/kg of the FXR agonist INT-747 (6-ethyl chenodeoxycholic acid, Intercept Pharmaceuticals Inc.) in vehicle (corn oil) for 5 days or with vehicle alone.
(§2) After 5 days of treatment rats underwent direct portal pressure assessment and were then sacrificed, and plasma and liver tissue collected for analysis. eNOS activity was determined radiometrically by the conversion of labelled radioactive arginine to citrulline. Protein expression for eNOS, iNOS, DDAH-1, and DDAH-2 were measured by standard Western Blotting techniques. Liver biopsies were evaluated for histopathology with H+E, Van Giesen and reticulin stains.
This method, termed ‘hydrodynamic gene therapy’, was used to determine the effect of transduction of DDAH-1 in BDL rats on portal pressure.
A plasmid containing human DDAH-1 cDNA was injected via a branch of the jugular vein into BDL or sham rodents produced as above. A control plasmid containing GFP was used as a control for the intervention in BDL animals. The animals underwent direct portal pressure measurement at 48 hours post intervention and plasma and tissue was collected for analysis of liver DDAH-1 mRNA (rtPCR) and protein expression (western blotting), as well as routine histology and biochemistry.

eNOS = experiment: Hepatic eNOS activity (conversion of labelled arginine to 14C-citrulline) in BDL rats; assay type: in vivo, rat; conditions: BDL rats + infliximab vs BDL vehicle and sham
Procedure: FIG. 1 reports on the 14C-citrulline counts per minute per milligram of protein. This is a measure of eNOS activity. Experiments were carried out in bile-duct ligated (BDL) or sham treated rats. The bile duct ligated rats were treated with either infliximab (BDL+infliximab) or a vehicle (BDL).
as §1, §2

ADMA = experiment: Liver tissue ADMA concentration in BDL rats; assay type: in vivo, rat; conditions: BDL rats + infliximab vs BDL vehicle
Source text: as §1
ADMA, SDMA and arginine were measured using fragmentation specific stable isotope dilution electrospray tandem mass spectrometry. In brief, samples de-proteinized with deuterated ADMA, SDMA and arginine, were chromatographed (acetonitrile:water, 1:1, with 0.025% formic acid) on a Teicoplanin guard column 10 mm×2.1 mm ID (Chirobiotic T, ASTEC Ltd, Congleton, UK), and analysed using a SCIEX API4000 (Applied Biosystems, Warrington, UK) in positive ion multiple reaction monitoring mode.

DDAH-I = experiment: Hepatic DDAH-I protein expression in BDL rats; assay type: in vivo, rat; conditions: BDL rats + infliximab vs BDL vehicle and sham
Source text: as §1
Extracts containing equal amounts of protein were denatured and separated on 4-12% NuPAGE Bis-Tris Gels and blotted on to PVDF membranes (Invitrogen, UK). […] The bands were visualized using an enhanced ECL detection kit and quantified by densitometry. Loading accuracy was evaluated via membrane rehybridization with antibodies against mouse and rabbit anti-α tubulin (1:1000; upstate and Cell Signaling Technology, respectively).
as §2, with “Liver biopsies were evaluated for histopathology with H+E, Van Giesen and reticulin stains.” left out

[1] = system: patients with acute alcoholic hepatitis; conditions: systemic infliximab in association with prednisolone; cited from earlier work

| Molecule | reduction in portal pressure (BDL rats; BDL rats, INT-747 5 mg/kg gavage for 5 days, compared to BDL+vehicle, p<0.01) | eNOS activity (14C-citrulline counts per minute per milligram of protein) (eNOS) | ADMA levels in liver tissue (ADMA) | DDAH-I expression in liver (DDAH-I) | DDAH-I expression in liver (DDAH-I; listed as Infliximab) | portal pressure (BDL rats; BDL cirrhotic rats after infliximab, BDL 14±0.7, sham 5.5±0.3 mmHg) | reduction in portal pressure (BDL rats; BDL rats + infliximab compared with BDL rats (vehicle / iso-volumetric saline)) | reduction in portal pressure (BDL rats; BDL rats + infliximab compared with BDL rats (vehicle / iso-volumetric saline), listed as Infliximab) | severe infections [1] |
| --- | --- | --- | --- | --- | --- | --- | --- | --- | --- |
| CC[C@H]1[C@@H](O)[C@@H]2[C@H](CC[C@]3(C)[C@@H]([C@H](C)CCC(=O)O)CC[C@@H]23)[C@@]2(C)CC[C@@H](O)C[C@@H]12 [INT-747, 6-ethyl chenodeoxycholic acid] | 30% | – | – | – | – | – | – | – | – |
| infliximab: anti-TNF monoclonal antibody infliximab | – | restores eNOS activity towards similar levels to those seen in the sham animals; also recorded: Increased | substantially reduced; also recorded: reduction | restored towards sham levels; also recorded: significant increase | restored towards sham levels | 9.5±0.6 mmHg | greater than 33% | more than 30% | high level of severe infections |
